# Article PMC9476189 (ACS Omega, 2022)
# Entries after “also recorded” stand apart in the source; their conditions may differ.
# Experiments:
# [1] = molecular target: BChE (Homo sapiens, UniProt P06276); details: mean ± SEM, triplicate
# [2] = molecular target: T1, LOX (Glycine max, UniProt P08170); assay: Lipoxygenase assay; format: biochemical; details: mean ± SEM, triplicate
# T1 sequence (P08170 1-839): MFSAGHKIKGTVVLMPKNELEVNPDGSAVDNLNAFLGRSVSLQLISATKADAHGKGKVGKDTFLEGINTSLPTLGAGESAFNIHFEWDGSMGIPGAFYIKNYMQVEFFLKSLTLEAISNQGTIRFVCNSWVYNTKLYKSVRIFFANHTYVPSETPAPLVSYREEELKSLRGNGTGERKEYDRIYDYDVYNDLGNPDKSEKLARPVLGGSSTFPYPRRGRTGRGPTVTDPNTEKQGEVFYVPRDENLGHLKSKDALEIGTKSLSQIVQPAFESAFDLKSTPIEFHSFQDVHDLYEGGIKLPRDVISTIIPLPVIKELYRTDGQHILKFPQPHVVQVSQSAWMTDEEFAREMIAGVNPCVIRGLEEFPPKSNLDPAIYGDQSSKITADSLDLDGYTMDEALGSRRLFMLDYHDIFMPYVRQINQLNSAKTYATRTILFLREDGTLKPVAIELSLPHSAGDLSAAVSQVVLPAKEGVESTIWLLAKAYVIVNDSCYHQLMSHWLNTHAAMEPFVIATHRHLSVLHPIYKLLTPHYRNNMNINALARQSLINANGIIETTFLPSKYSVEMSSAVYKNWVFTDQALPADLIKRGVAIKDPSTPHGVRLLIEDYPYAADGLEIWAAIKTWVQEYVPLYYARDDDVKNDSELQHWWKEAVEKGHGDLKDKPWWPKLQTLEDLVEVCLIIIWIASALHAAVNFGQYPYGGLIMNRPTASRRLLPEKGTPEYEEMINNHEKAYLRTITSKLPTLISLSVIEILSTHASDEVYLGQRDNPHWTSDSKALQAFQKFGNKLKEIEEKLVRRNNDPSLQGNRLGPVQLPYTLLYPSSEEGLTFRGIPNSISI
# [3] = molecular target: AChE (Homo sapiens, UniProt P22303); details: for AChE inhibition, inhibition (%) at 0.5 mM / IC50: mean ± SEM, triplicate; for IC50: read-out: AChE inhibition, IC50
# Chain of AChE (P22303 32-614): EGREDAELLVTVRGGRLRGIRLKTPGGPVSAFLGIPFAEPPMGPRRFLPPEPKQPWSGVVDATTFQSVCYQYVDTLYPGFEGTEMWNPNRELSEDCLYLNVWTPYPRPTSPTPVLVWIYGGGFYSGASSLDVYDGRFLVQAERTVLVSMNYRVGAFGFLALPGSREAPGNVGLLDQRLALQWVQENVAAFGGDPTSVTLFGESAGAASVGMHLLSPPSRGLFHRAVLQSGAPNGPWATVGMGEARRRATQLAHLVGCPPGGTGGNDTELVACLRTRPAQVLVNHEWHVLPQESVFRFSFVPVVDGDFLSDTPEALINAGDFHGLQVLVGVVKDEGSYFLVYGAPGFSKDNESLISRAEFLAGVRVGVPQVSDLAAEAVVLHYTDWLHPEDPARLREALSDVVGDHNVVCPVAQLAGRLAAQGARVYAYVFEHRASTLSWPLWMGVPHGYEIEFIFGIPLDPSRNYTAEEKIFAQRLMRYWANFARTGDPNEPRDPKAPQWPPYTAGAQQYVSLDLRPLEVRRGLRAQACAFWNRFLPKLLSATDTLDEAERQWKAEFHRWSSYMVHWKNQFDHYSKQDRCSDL
# [4] = molecular target: α-glucosidase (Saccharomyces cerevisiae, UniProt P53341); assay: α-Glucosidase assay; format: biochemical; details: for α-glucosidase inhibition, inhibition (%) at 0.5 mM / IC50: mean ± SEM, triplicate; for IC50: read-out: α-glucosidase inhibition, IC50
# Chain of α-glucosidase (P53341 whole entry): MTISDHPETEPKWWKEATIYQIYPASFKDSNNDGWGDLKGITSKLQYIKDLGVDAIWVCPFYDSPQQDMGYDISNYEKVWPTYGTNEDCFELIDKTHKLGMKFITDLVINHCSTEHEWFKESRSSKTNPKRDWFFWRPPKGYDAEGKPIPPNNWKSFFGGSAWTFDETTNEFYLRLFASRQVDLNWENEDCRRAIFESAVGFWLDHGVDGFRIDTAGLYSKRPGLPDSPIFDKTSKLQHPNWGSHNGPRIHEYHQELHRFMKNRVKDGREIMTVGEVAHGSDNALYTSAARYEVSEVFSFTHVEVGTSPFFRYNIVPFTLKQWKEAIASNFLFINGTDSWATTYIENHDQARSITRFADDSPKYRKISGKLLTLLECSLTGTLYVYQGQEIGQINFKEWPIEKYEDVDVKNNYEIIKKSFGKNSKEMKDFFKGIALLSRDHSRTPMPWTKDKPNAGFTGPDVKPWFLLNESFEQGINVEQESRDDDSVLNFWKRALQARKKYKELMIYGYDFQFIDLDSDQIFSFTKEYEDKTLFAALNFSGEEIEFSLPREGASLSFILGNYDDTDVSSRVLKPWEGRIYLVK
# [5] = molecular target: urease (Canavalia ensiformis, UniProt P07374); details: mean ± SEM, triplicate; for IC50: read-out: urease inhibition, IC50
# Chain of urease (P07374 whole entry, looked up): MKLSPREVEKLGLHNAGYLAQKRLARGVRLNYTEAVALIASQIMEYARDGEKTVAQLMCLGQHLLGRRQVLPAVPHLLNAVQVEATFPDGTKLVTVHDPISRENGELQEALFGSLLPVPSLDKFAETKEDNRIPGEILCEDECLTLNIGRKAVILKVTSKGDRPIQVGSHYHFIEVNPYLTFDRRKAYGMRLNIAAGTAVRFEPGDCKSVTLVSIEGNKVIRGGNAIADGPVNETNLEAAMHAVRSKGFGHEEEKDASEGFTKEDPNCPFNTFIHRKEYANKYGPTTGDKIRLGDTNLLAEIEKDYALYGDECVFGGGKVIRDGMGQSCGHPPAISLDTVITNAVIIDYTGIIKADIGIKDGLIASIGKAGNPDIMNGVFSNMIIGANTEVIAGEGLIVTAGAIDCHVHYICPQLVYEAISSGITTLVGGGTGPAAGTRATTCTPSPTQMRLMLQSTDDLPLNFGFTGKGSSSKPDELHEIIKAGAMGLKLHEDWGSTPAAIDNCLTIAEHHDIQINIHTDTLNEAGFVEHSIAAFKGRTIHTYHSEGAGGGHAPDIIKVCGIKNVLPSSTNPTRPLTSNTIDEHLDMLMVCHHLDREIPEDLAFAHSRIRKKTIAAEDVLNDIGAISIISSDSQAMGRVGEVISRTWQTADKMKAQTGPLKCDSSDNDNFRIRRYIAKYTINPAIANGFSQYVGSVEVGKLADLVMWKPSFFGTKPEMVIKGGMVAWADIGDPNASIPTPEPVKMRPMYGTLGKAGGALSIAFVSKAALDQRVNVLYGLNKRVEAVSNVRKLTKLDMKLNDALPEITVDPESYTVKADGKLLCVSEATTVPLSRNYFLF
# Chain of BChE (P06276 29-602, species assumed): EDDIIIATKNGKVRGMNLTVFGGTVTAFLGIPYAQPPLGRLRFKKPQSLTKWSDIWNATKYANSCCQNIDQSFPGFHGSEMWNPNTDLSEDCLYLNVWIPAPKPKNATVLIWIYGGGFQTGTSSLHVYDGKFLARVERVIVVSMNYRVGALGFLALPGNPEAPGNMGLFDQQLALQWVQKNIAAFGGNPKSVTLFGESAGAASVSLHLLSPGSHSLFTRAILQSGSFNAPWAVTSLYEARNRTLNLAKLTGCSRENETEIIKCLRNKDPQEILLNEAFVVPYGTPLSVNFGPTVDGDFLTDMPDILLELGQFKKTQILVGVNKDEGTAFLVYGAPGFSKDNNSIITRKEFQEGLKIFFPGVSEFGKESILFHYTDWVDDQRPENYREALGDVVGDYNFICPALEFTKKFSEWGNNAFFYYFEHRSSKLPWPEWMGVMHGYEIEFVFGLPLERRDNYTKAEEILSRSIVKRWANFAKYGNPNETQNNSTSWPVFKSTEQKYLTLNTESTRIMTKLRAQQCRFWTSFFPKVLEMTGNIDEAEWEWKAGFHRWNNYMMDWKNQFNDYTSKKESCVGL
Compound,"BChE inhibition, inhibition (%) at 0.5 mM [1]","LOX inhibition, inhibition (%) at 0.25 mM [2]","AChE inhibition, inhibition (%) at 0.5 mM [3]",IC50 [3],"α-glucosidase inhibition, inhibition (%) at 0.5 mM [4]",IC50 [4],"urease inhibition, inhibition (%) at 0.25 mM [5]","IC50 ([1]; read-out: BChE inhibition, IC50)",activity against AChE enzyme (in words) [3],IC50 [5],activity against α-glucosidase enzyme (in words) [4],"IC50 ([2]; read-out: LOX inhibition, IC50)"
"Cc1ccc(S(=O)(=O)N2CCC(c3nnc(SCC(=O)Nc4c(C)cccc4C)n3C)CC2)cc1 [Compound 12l, 1-(4-toluenesulfonyl)-4-{3-[N-(2,6-dimethylphenyl)-2-ethanamoylthio]-4-methyl-4H-1,2,4-triazol-5-yl} piperidine]",41.87 ± 0.63%,45.29 ± 0.56%,62.25 ± 0.86%,287.7 ± 0.63 µM,53.67 ± 1.67%,463.3 ± 1.36 µM,46.19 ± 1.76%,,,,,
"Cc1ccc(S(=O)(=O)N2CCC(c3nnc(SCC(=O)Nc4cc(C)cc(C)c4)n3C)CC2)cc1 [Compound 12m, 1-(4-toluenesulfonyl)-4-{3-[N-(3,5-dimethylphenyl)-2-ethanamoylthio]-4-methyl-4H-1,2,4-triazol-5-yl} piperidine]",91.25 ± 0.45%,37.45 ± 0.37%,92.73 ± 0.87%,0.42 ± 0.67 µM,87.21 ± 1.46%,142.7 ± 1.23 µM,98.65 ± 1.67%,0.038 µM,excellent activity,14.3 ± 1.27 µM,,
"CCc1cccc(C)c1NC(=O)CSc1nnc(C2CCN(S(=O)(=O)c3ccc(C)cc3)CC2)n1C [Compound 12n, 1-(4-toluenesulfonyl)-4-{3-[N-(2-ethyl-6-methylphenyl)-2-ethanamoylthio]-4-methyl-4H-1,2,4-triazol-5-yl} piperidine]",36.24 ± 0.59%,35.65 ± 0.49%,61.53 ± 0.65%,328.1 ± 0.45 µM,92.65 ± 1.64%,29.4 ± 1.32 µM,32.85 ± 1.39%,,,,excellent activity; also recorded: most active compound,
"Cc1ccc(S(=O)(=O)N2CCC(c3nnc(SCC(=O)Nc4c(C)cccc4[N+](=O)[O-])n3C)CC2)cc1 [Compound 12o, 1-(4-toluenesulfonyl)-4-{3-[N-(2-methyl-6-nitrophenyl)-2-ethanamoylthio]-4-methyl-4H-1,2,4-triazol-5-yl} piperidine]",39.65 ± 0.42%,64.28 ± 0.73%,81.53 ± 0.96%,129.6 ± 0.73 µM,72.23 ± 1.51%,285.6 ± 1.23 µM,56.35 ± 1.67%,,,241.8 ± 0.42 µM,,93.81 ± 0.34 µM
